# Laboratory results: patent EP1285920A1, “C10 Ester sustituted taxanes as antitumor agents” (Florida State University Research Foundation, Inc., priority 2001, dated 2003)
# Where two headings read alike, the source gives them in different places.
# System: Panc-1 pancreatic carcinoma
# Conditions: for Mean Score: tumor scoring system
# [1] = number of mice, Taxol 15 mg/kg i.p. qd x 5, 6 mice, Day 63
# [2] = number of mice, i.v. qd x 1, mg/kg: Taxol 24, 0854 46.6, 1011 107.6, 6 mice/group, Day 63
# Procedure: The dosing volume was 0.3 ml per 20 g mouse.
# Female NCr-nude mice were implanted subcutaneously with 1 mm^3 Panc-1 pancreatic carcinoma fragments in the flank and sorted into treatment groups of six mice each. […] Dosing was initiated on Day 1. The antitumor compounds were given i.v. at an estimated maximum tolerated dose (MTD) appropriate for each agent on a qd x 1 schedule (single administration of compound). […] The vehicle was administered i.v. to control mice in Group 1 on the qd x 1 schedule.
# The mean days of survival is the number of days after which a neoplasm reached a size of 1.5 g and the animal was euthanized. A complete response is obtained if the tumor shrinks to a size smaller than its size on Day 1 of the study.
compound,measurement,setting,value
"CC(=O)O[C@H]1C(=O)[C@@]2(C)[C@H]([C@H](OC(=O)c3ccccc3)[C@]3(O)C[C@H](OC(=O)[C@H](O)[C@@H](NC(=O)c4ccccc4)c4ccccc4)C(C)=C1C3(C)C)[C@]1(OC(C)=O)CO[C@@H]1C[C@@H]2O [Taxol, paclitaxel, reference compound]",MDS,"Panc-1 (Example 18), Taxol 24 mg/kg i.v. qd x 1, four mice, tumor 1.5 g, ended Day 63",34.7 days
same,Toxic Deaths,"Panc-1 (Example 18), Taxol i.p. 15 mg/kg qd x 5 (Group 3), six animals",four
same,Stable Disease,"Panc-1 (Example 18), i.v. qd x 1, Taxol 24 mg/kg split, six mice per group",one
same,toxic deaths / toxic lethalities,"Panc-1 (Example 18), i.v. qd x 1, six mice per group",One
same,MDS (n),"mean days of survival until neoplasm reached 1.5 g, i.v. qd x 1, mg/kg: Taxol 24, 0854 46.6, 1011 107.6, 6 mice/group, terminated Day 63",34.7 ± 3.4 days
same,Toxic Deaths,"number of mice, Taxol 15 mg/kg i.p. qd x 5, 6 mice",4
same,Complete Response,[1],0
same,Partial Response,[1],1
same,Stable Disease,[1],0
same,Survivors,[1],1
same,Toxic Deaths,"number of mice, i.v. qd x 1, mg/kg: Taxol 24, 0854 46.6, 1011 107.6, 6 mice/group",1
same,Complete Response,[2],0
same,Partial Response,[2],0
same,Stable Disease,[2],1
same,Survivors,[2],1
same,Mean Score,"Taxol 15 mg/kg i.p. qd x 5, 6 mice",1.2 ± 1.2
same,Mean Score,"i.v. qd x 1, mg/kg: Taxol 24, 0854 46.6, 1011 107.6, 6 mice/group",2.2 ± 0.8
